Experimental data taken from patent US9713615B2, “Tetrahydroisoquinolin-2-yl-(quinazolin-4-yl)methanone compounds” (Rexahn Pharmaceuticals, Inc., priority 2013, dated 2017).

Columns and labels:
MDA-MB-231 (breast) = assay: SRB growth inhibition assay, MDA-MB-231; type: cell-based, Human; settings: Homo sapiens, MDA-MB-231, 96 hours incubation, read-out: Inhibition of cell growth (IC50, μM) MDA-MB-231
Text: (§1) Cancer cells used in this study to determine the effect of tetrahydroisoquinolin-2-yl-(quinazolin-4-yl)methanone compounds were obtained from the following sources: Human OVCAR-3 (ovary), SK-MEL-28 (melanoma), MDA-MB-231 (breast), HeLa (cervix), PC3 (prostate), HepG2 (liver), A549 (lung), Caki-1 (kidney), HCT116 (colon) and PANC-1 (pancreas) from the American Type Culture Collection (ATCC) (Manassas, Va.); U251 (brain) from Riken (Japan); MKN-45 (stomach) from DSMZ (Germany). All cell lines except MDA-MB-231, HCT116, Caki-1 and PANC-1 were grown in RPMI1640 medium (Invitrogen, Carlsbad, Calif.) supplemented with 10% fetal bovine serum (“FBS”), 1 mM sodium pyruvate, 10 mM HEPES and 100 U/ml penicillin and 100 μg/ml streptomycin (“P/S”). MDA-MB-231, HCT116, Caki-1 and PANC-1 cells were maintained in Dulbecco's modified Eagle's medium (“DMEM”, Invitrogen) supplemented with 10% FBS, P/S, 10 mM HEPES and 2 mM L-glutamine. All cells were incubated at 37° C. under humidified 5% CO2.
(§2) The growth inhibition of the tetrahydroisoquinolin-2-yl-(quinazolin-4-yl)methanone compounds against a variety of human tumor cells was evaluated to study the relative importance of particular substituent groups on the compounds. The tetrahydroisoquinolin-2-yl-(quinazolin-4-yl)methanone compounds, prepared as described above, were tested with DMSO as a control.
(§3) The growth inhibition assay of representative tetrahydroisoquinolin-2-yl-(quinazolin-4-yl)methanone derivatives against human tumor cell lines was performed using the Sulforhodamine B (“SRB”) method (Skehan et al., J. National Cancer Institute, 82: 1107-1112 (1990)). Briefly, exponentially growing tumor cells were seeded into a 96-well plate at a density of 2-3×10^3 cells/well and treated with tetrahydroisoquinolin-2-yl-(quinazolin-4-yl)methanone compounds the next day. Triplicate wells were used for each treatment. The cells were incubated with the various compounds for 96 hours at 37° C. in a humidified 5% CO2 atmosphere. After 96-hour incubation, cells were fixed with 10% trichloroacetic acid (“TCA”), incubated for 1 hour at 4° C., and washed 3 times with tap water. Subsequently, cells were stained with 0.4% sulforhodamine B in 1% acetic acid for 30 minutes, washed 4 times with 1% acetic acid, and air-dried again After 5 minutes agitation in 10 mM Tris solution, the absorbance of each well was measured at 530 nm using Benchmark Plus Microplate reader (Bio-Rad Laboratories, Hercules, Calif.).
(§4) To translate the OD530 values into the number of live cells in each well, the OD530 values were compared to those on standard OD530-versus-cell number curves generated for each cell line. The percent survival was calculated using the formula: % Survival=live cell number [test]/live cell number [control]×100
(§5) The IC50 values were calculated by non-linear regression analysis.
(§6) The compounds were screened against at […] including PANC-1, MDA-MB-231, HCT116 and Caki-1, at approximately 1 μM concentration. The inhibition of cell growth (IC50, μM) of some tetrahydroisoquinolin-2-yl-(quinazolin-4-yl)methanone compounds are shown in Table 2.

HCT116 (colon) = assay: SRB growth inhibition assay, HCT116; type: cell-based, Human; settings: Homo sapiens, HCT-116, 96 hours incubation, read-out: Inhibition of cell growth (IC50, μM) HCT116
Text: as §1, §2, §3, §4, §5, §6

Caki-1 (kidney) = assay: SRB growth inhibition assay, Caki-1; type: cell-based, Human; settings: Homo sapiens, CAKI-1, 96 hours incubation, read-out: Inhibition of cell growth (IC50, μM) Caki-1
Text: as §1, §2, §3, §4, §5, §6

PANC-1 (pancreas) = assay: SRB growth inhibition assay, PANC-1; type: cell-based, Human; settings: Homo sapiens, PANC-1, 96 hours incubation, read-out: Inhibition of cell growth (IC50, μM) Panc-1
Text: as §1, §2, §3, §4, §5, §6

MKN-45 (stomach) = assay: SRB growth inhibition assay, MKN-45; type: cell-based; settings: Homo sapiens, 96 hours incubation, read-out: Inhibition of cell growth (IC50, μM) MKN-45
Text: as §1, §2, §3, §4, §5

SK-MEL-28 (melanoma) = assay: SRB growth inhibition assay, SK-MEL-28; type: cell-based; settings: Homo sapiens, 96 hours incubation, read-out: Inhibition of cell growth (IC50, μM) SK-MEL-28
Text: as §1, §2, §3, §4, §5

HeLa (cervix) = assay: SRB growth inhibition assay, HeLa; type: cell-based; settings: Homo sapiens, 96 hours incubation, read-out: Inhibition of cell growth (IC50, μM) HeLa
Text: as §1, §2, §3, §4, §5

OVCAR-3 (ovary) = assay: SRB growth inhibition assay, OVCAR-3; type: cell-based; settings: Homo sapiens, 96 hours incubation, read-out: Inhibition of cell growth (IC50, μM) Ovcar3
Text: as §1, §2, §3, §4, §5

U251 (brain) = assay: SRB growth inhibition assay, U251; type: cell-based; settings: Homo sapiens, U-251, 96 hours incubation, read-out: Inhibition of cell growth (IC50, μM) U251
Text: as §1, §2, §3, §4, §5

HepG2 (liver) = assay: SRB growth inhibition assay, HepG2; type: cell-based; settings: Homo sapiens, 96 hours incubation, read-out: Inhibition of cell growth (IC50, μM) HepG2
Text: as §1, §2, §3, §4, §5

A549 (lung) = assay: SRB growth inhibition assay, A549; type: cell-based; settings: Homo sapiens, 96 hours incubation, read-out: Inhibition of cell growth (IC50, μM) A549
Text: as §1, §2, §3, §4, §5

PC3 (prostate) = assay: SRB growth inhibition assay, PC3; type: cell-based; settings: Homo sapiens, 96 hours incubation, read-out: Inhibition of cell growth (IC50, μM) PC-3
Text: as §1, §2, §3, §4, §5

[1] = test system: MDA-MB-231 human breast adenocarcinoma cells; assay: Xenograft study in nude mice; type: in vivo; settings: 50 mg/kg intraperitoneal three times per week from day 15; subcutaneous MDA-MB-231 xenograft, female NCr nu/nu mice
Experimental: Tumor growth inhibition by tetrahydroisoquinolin-2-yl-(quinazolin-4-yl)methanone compounds in an animal model was carried out by performing an […] xenograft study of nude mice was conducted with Compound 1. Suitable human cancer cell lines are those that have been tested previously for inhibition of cancer cell growth. The antitumor efficacy of Compound 1 was evaluated against subcutaneously injected tumor xenografts in nude mice. Tumor volume was measured after treatment with Compound 1.
A suspension of MDA-MB-231 cells (5×10^6 cells in […]) was injected subcutaneously into the right flank of CR female NCr nu/nu mice on day 0. A sufficient number of mice were injected with MDA-MB-231 cell suspension (0.2 ml/mouse) so that tumors in a volume range as narrow as possible were selected for the trial on the day of treatment initiation. Animals with tumors in the proper size range (100˜150 mm^3) were assigned to various treatment groups. Compound 1 was dissolved in the mixture of 15% dimethylacetamide and 30% Solutol® HS15 in water. Solvent alone served as control. […] To quantify tumor growth, three perpendicular diameters of the tumors were measured with calipers every 3-4 days, and the body weight of the mice was monitored for toxicity. The tumor volume was calculated using the formula: tumor volume (mm^3)=(width)×(length)×(height)×π/6.

| Structure (SMILES) | IC50 (MDA-MB-231 (breast)) | IC50 (HCT116 (colon)) | IC50 (Caki-1 (kidney)) | IC50 (PANC-1 (pancreas)) | IC50 (MKN-45 (stomach)) | IC50 (SK-MEL-28 (melanoma)) | IC50 (HeLa (cervix)) | IC50 (OVCAR-3 (ovary)) | IC50 (U251 (brain)) | IC50 (HepG2 (liver)) | IC50 (A549 (lung)) | IC50 (PC3 (prostate)) | inhibition of tumor growth (tumor volume) [1] |
| --- | --- | --- | --- | --- | --- | --- | --- | --- | --- | --- | --- | --- | --- |
| COc1ccc2c(c1O)CCN(C(=O)c1nc(-c3ccc(F)cc3)nc3ccccc13)C2 [Compound 1, 2-[[2-(4-fluorophenyl)quinazolin-4-yl]carbonyl]-5-hydroxy-6-methoxy-1,2,3,4-tetrahydroisoquinoline] | 0.06 µM | 0.069 µM | 0.056 µM | 0.057 µM | 0.058 µM | 0.063 µM | 0.063 µM | 0.06 µM | 0.067 µM | 0.12 µM | 0.14 µM | 0.076 µM | inhibition of tumor growth |
| COc1ccc2c(c1O)CCN(C(=O)c1nc(-c3cccnc3)nc3ccccc13)C2 [Compound 84, 2-[[2-(3-pyridinyl)quinazolin-4-yl]carbonyl]-5-hydroxy-6-methoxy-1,2,3,4-tetrahydroisoquinoline] | 0.13 µM | 0.15 µM | 0.093 µM | 0.15 µM | 0.071 µM | 0.13 µM | 0.15 µM | 0.14 µM | 0.11 µM | 0.2 µM | 0.24 µM | 0.15 µM | – |
